Here are results for one compound from patent US20250269000A1, “ANTI-TUMOUR RESPONSES TO CYTOKERATINS” (SCANCELL LIMITED, priority 2020, published 2025).

Where a SMILES comes first, the peptide text is derived from it. [ ]: non-standard residue; d: D form. Cit = NC(=O)NCCC[C@H](N)C(=O)O

This data set deals with B16 tumour cells. Description: Tumour challenge, B16 in C57BL/6 mice. Format: in vivo, mouse. As to conditions: immunised tumour bearing C57BL/6 mice. The method, then:
C57BL/6 were challenged with B16 tumour (parental non-transfected cell line). Four days later the C57BL/6 mice were immunised with Cyk8 8-26 cit peptide. Overall survival (A), tumour volume (B) at day 13 and tumour volume throughout the study (C), post tumour implant are shown for unimmunised control mice and mice immunised with Cyk8 8-26 cit peptide. Statistical differences between immunised and control mice were determined by Mantel-Cox test, p values are shown. The tumour volume medians and p values are shown as determined by Mann Whitney U test, n=10 in all group.
For tumour challenge experiments, mice were challenged with 1×10^5 B16 HHDII/iDP4 cells subcutaneously on the right flank […] before primary immunisation (unless stated otherwise) and then immunised as described above. Tumour growth was monitored at 3-4 days intervals and mice humanely euthanised once tumour reached ≥10 mm in diameter.
The effect of immunisation with Cyk8 8-26 cit on the growth of the mouse B16 melanoma cell line was assessed in C57BL/6. Mice were challenged with B16 tumour cells 3 days prior to immunisation with Cyk8 8-26 cit.

On to `CC(C)[C@H](NC(=O)[C@H](CCCCN)NC(=O)[C@H](Cc1ccc(O)cc1)NC(=O)[C@H](CO)NC(=O)[C@@H](N)CCCCN)C(=O)N[C@@H](CO)C(=O)N[C@H](C(=O)N[C@@H](CO)C(=O)NCC(=O)N1CCC[C@H]1C(=O)N[C@@H](CCCNC(N)=O)C(=O)N[C@@H](C)C(=O)N[C@@H](Cc1ccccc1)C(=O)N[C@@H](CO)C(=O)N[C@@H](CO)C(=O)N[C@@H](CCCNC(N)=O)C(=O)N[C@@H](CO)C(=O)N[C@@H](Cc1ccc(O)cc1)C(=O)N[C@H](C(=O)O)[C@@H](C)O)[C@@H](C)O` [Cyk8 8-26 cit, KSYKVSTSGP-cit-AFSS-cit-SYT] (H-KSYKVSTSGP[Cit]AFSS[Cit]SYT-OH), for which the associated toxicity result is “no associated toxicity”.
